# *1 amine or outer side, *2 acyl side, *3 side chain or, on linkers, in order; H or OH if unused. Where a SMILES comes first, the peptide text is derived from it. Bridges are numbered along the chain shown (N, C = ends). Side-chain parts run from the residue outwards. The star is where a group is joined. C20 diacid = O=C(O)CCCCCCCCCCCCCCCCCCC(=O)*; γGlu = O=C(O)[C@H](CCC(=O)[*:2])N[*:1]; GABA = NCCCC(=O)O
# Biological target: T1, Amylin 3(a) receptor (human calcitonin receptor (CTa) and RAMP-3) (Homo sapiens, UniProt O60896+P30988)
# T1 construct: expressed in transfected cells; host or cells: BHK570 cells, stably transfected with a CRE-luciferase reporter
# T1 sequence (O60896 24-148): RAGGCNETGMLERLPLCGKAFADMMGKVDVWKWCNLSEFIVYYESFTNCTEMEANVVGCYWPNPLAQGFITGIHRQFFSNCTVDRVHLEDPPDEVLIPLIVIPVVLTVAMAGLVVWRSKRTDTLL
# T1 sequence (P30988 25-474): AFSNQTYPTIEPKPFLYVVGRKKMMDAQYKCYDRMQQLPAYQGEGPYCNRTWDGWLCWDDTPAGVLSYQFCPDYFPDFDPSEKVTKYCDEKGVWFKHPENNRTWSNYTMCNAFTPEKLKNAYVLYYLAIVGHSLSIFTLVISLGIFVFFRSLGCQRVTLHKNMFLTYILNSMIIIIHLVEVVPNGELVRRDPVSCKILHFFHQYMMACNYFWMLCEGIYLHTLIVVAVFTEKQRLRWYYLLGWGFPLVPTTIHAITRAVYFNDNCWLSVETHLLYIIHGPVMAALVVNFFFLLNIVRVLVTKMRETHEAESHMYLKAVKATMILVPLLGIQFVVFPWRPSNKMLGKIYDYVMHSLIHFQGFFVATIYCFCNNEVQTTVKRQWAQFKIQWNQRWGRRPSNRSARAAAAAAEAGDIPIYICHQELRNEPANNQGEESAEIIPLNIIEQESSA
# Assay: Luciferase assay (III), BHK Amylin 3(a)//CRE-luc cells
# Type: cell-based
# Conditions: BHK cells with Amylin 3(a) receptor and CRE luciferase reporter, 4 hours incubation; read-out: Potency Luciferase
# In short: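 BHK570 cells stably expressing CTa, RAMP-3 and a CRE-luciferase reporter, seeded at about 20,000 cells/well and grown overnight. Cells were exposed to standard or sample for 4 h at 37° C in phenol red-free DMEM with 10% FBS and 10 mM Hepes, pH 7,4. Luminescence was read after 30 min LucLite at room temperature.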
row,EC50 [nM],Structure (SMILES)
1,2,"CC[C@H](C)[C@H](NC(=O)[C@@H]1CCCN1C(=O)CNC(=O)[C@H](Cc1ccccc1)NC(=O)[C@H](CC(N)=O)NC(=O)[C@H](CC(=O)O)NC(=O)[C@H](CO)NC(=O)[C@H](CO)NC(=O)[C@H](Cc1c[nH]cn1)NC(=O)[C@H](Cc1c[nH]cn1)NC(=O)[C@H](CC(C)C)NC(=O)[C@H](Cc1ccccc1)NC(=O)[C@H](CC(N)=O)NC(=O)[C@H](C)NC(=O)[C@H](CC(C)C)NC(=O)[C@H](CCCNC(=N)N)NC(=O)[C@H](CCC(N)=O)NC(=O)[C@@H](NC(=O)[C@H](C)NC(=O)[C@@H]1CSSC[C@H](NC(=O)[C@@H](N)CCCCN)C(=O)N[C@@H](CCCCNC(=O)[C@H](CCC(=O)O)NC(=O)[C@H](CCC(=O)O)NC(=O)[C@H](CCC(=O)O)NC(=O)[C@H](CCC(=O)O)NC(=O)CCCCCCCCCCCCCCCCCCC(=O)O)C(=O)N[C@@H]([C@@H](C)O)C(=O)N[C@@H](C)C(=O)N[C@@H]([C@@H](C)O)C(=O)N1)[C@@H](C)O)C(=O)N[C@@H](CC(C)C)C(=O)N1CCC[C@H]1C(=O)N1CCC[C@H]1C(=O)N[C@H](C(=O)N[C@@H](CC(N)=O)C(=O)N[C@H](C(=O)NCC(=O)N[C@@H](CO)C(=O)N[C@@H](CC(N)=O)C(=O)N[C@H](C(=O)N[C@@H](Cc1ccc(O)cc1)C(N)=O)[C@@H](C)O)C(C)C)[C@@H](C)O [Example 4, N-epsilon3-(19-carboxynonadecanoyl-Glu-Glu-Glu-Glu)-[Lys3,His17,Asp21]-pramlintide] (H-KCK([Glu-Glu-Glu-Glu-C20 diacid])TATCATQRLANFLHHSSDNFGPILPPTNVGSNTY-NH2; disulfide 2-7)"
2,0.03,"CC[C@H](C)[C@H](NC(=O)[C@@H]1CCCN1C(=O)CNC(=O)[C@H](Cc1ccccc1)NC(=O)[C@H](CC(N)=O)NC(=O)[C@H](CC(N)=O)NC(=O)[C@H](CO)NC(=O)[C@H](CO)NC(=O)[C@H](Cc1c[nH]cn1)NC(=O)[C@H](CCCNC(=N)N)NC(=O)[C@H](CC(C)C)NC(=O)[C@H](Cc1ccccc1)NC(=O)[C@H](CC(N)=O)NC(=O)[C@H](C)NC(=O)[C@H](CC(C)C)NC(=O)[C@H](CCCNC(=N)N)NC(=O)[C@H](CCC(N)=O)NC(=O)[C@@H](NC(=O)[C@H](C)NC(=O)[C@@H]1CSSC[C@H](NC(=O)[C@H](CCCCN)NC(=O)[C@H](CCCNC(=N)N)NC(=O)CCCNC(=O)CCCCCCCCCCCCCCCCCCC(=O)O)C(=O)N[C@@H](CC(N)=O)C(=O)N[C@@H]([C@@H](C)O)C(=O)N[C@@H](C)C(=O)N[C@@H]([C@@H](C)O)C(=O)N1)[C@@H](C)O)C(=O)N[C@@H](CC(C)C)C(=O)N1CCC[C@H]1C(=O)N1CCC[C@H]1C(=O)N[C@H](C(=O)N[C@@H](CC(N)=O)C(=O)N[C@H](C(=O)NCC(=O)N[C@@H](CO)C(=O)N[C@@H](CC(N)=O)C(=O)N[C@H](C(=O)N[C@@H](Cc1ccc(O)cc1)C(N)=O)[C@@H](C)O)C(C)C)[C@@H](C)O [Example 25, N-alpha-[4-(19-Carboxynonadecanoylamino)butyryl]-Arg-[Arg17]-pramlintide] ({C20 diacid-GABA}-RKCNTATCATQRLANFLRHSSNNFGPILPPTNVGSNTY-NH2; disulfide 3-8)"
3,0.1,"CC[C@H](C)[C@H](NC(=O)[C@@H]1CCCN1C(=O)CNC(=O)[C@H](Cc1ccccc1)NC(=O)[C@H](CC(N)=O)NC(=O)[C@H](CCC(N)=O)NC(=O)[C@H](CO)NC(=O)[C@H](CO)NC(=O)[C@H](Cc1c[nH]cn1)NC(=O)[C@H](Cc1c[nH]cn1)NC(=O)[C@H](CC(C)C)NC(=O)[C@H](Cc1ccccc1)NC(=O)[C@H](CC(N)=O)NC(=O)[C@H](C)NC(=O)[C@H](CC(C)C)NC(=O)[C@H](CCCNC(=N)N)NC(=O)[C@H](CCC(N)=O)NC(=O)[C@@H](NC(=O)[C@H](C)NC(=O)[C@@H]1CSSC[C@H](NC(=O)[C@H](CCCNC(=N)N)NC(=O)[C@H](Cc2c[nH]cn2)NC(=O)[C@H](Cc2c[nH]cn2)NC(=O)[C@H](CCC(=O)O)NC(=O)CC[C@H](NC(=O)CCCCCCCCCCCCCCCCCCC(=O)O)C(=O)O)C(=O)N[C@@H](CC(N)=O)C(=O)N[C@@H]([C@@H](C)O)C(=O)N[C@@H](C)C(=O)N[C@@H]([C@@H](C)O)C(=O)N1)[C@@H](C)O)C(=O)N[C@@H](CC(C)C)C(=O)N1CCC[C@H]1C(=O)N1CCC[C@H]1C(=O)N[C@H](C(=O)N[C@@H](CC(N)=O)C(=O)N[C@H](C(=O)NCC(=O)N[C@@H](CO)C(=O)N[C@@H](CC(N)=O)C(=O)N[C@H](C(=O)N[C@@H](Cc1ccc(O)cc1)C(N)=O)[C@@H](C)O)C(C)C)[C@@H](C)O [Example 63, N-alpha-[(S)-4-Carboxy-4-(19-carboxynonadecanoylamino)butyryl]-GluHis-His-[Arg1,His17,Gln21]-pramlintide] ({C20 diacid-γGlu}-EHHRCNTATCATQRLANFLHHSSQNFGPILPPTNVGSNTY-NH2; disulfide 5-10)"
4,0.1,"CC(C)C[C@H](NC(=O)[C@H](CCCNC(=N)N)NC(=O)[C@H](CCC(N)=O)NC(=O)[C@@H](NC(=O)[C@H](C)NC(=O)[C@@H]1CSSC[C@H](NC(=O)[C@H](CCC(=O)O)NC(=O)[C@H](CCCNC(=N)N)NC(=O)[C@H](CCC(=O)O)NC(=O)CC[C@H](NC(=O)CCCCCCCCCCCCCCCCCCC(=O)O)C(=O)O)C(=O)N[C@@H](CC(N)=O)C(=O)N[C@@H]([C@@H](C)O)C(=O)N[C@@H](C)C(=O)N[C@@H]([C@@H](C)O)C(=O)N1)[C@@H](C)O)C(=O)N[C@@H](C)C(=O)N[C@@H](CC(N)=O)C(=O)N[C@@H](Cc1ccccc1)C(=O)N[C@@H](CC(C)C)C(=O)N[C@@H](Cc1c[nH]cn1)C(=O)N[C@@H](Cc1c[nH]cn1)C(=O)N[C@@H](CO)C(=O)N[C@@H](CO)C(=O)N[C@@H](CCC(N)=O)C(=O)N[C@@H](CC(N)=O)C(=O)N[C@@H](Cc1ccccc1)C(=O)NCC(=O)N[C@@H](C)C(=O)N1CCC[C@H]1C(=O)N[C@@H](CC(C)C)C(=O)N[C@@H](CO)C(=O)N[C@@H](CO)C(=O)N[C@H](C(=O)N[C@@H](CC(N)=O)C(=O)N[C@H](C(=O)NCC(=O)N[C@@H](CO)C(=O)N[C@@H](CC(N)=O)C(=O)N[C@H](C(=O)N[C@@H](Cc1ccc(O)cc1)C(N)=O)[C@@H](C)O)C(C)C)[C@@H](C)O [Example 41, N-alpha-[(S)-4-Carboxy-4-(19-carboxynonadecanoylamino)butyryl]-Glu-Arg-[Glu1,His17,Gln21,Ala25,Pro26,Ser28,Ser29]-pramlintide] ({C20 diacid-γGlu}-ERECNTATCATQRLANFLHHSSQNFGAPLSSTNVGSNTY-NH2; disulfide 4-9)"
5,0.1,"CC[C@H](C)[C@H](NC(=O)[C@@H]1CCCN1C(=O)CNC(=O)[C@H](Cc1ccccc1)NC(=O)[C@H](CC(N)=O)NC(=O)[C@H](CC(N)=O)NC(=O)[C@H](CO)NC(=O)[C@H](CO)NC(=O)[C@H](Cc1c[nH]cn1)NC(=O)CNC(=O)[C@H](CC(C)C)NC(=O)[C@H](Cc1ccccc1)NC(=O)[C@H](CC(N)=O)NC(=O)[C@H](C)NC(=O)[C@H](CC(C)C)NC(=O)[C@H](CCCNC(=N)N)NC(=O)[C@H](CCC(N)=O)NC(=O)[C@@H](NC(=O)[C@H](C)NC(=O)[C@@H]1CSSC[C@H](NC(=O)[C@H](CCCCN)NC(=O)[C@H](CCCNC(=N)N)NC(=O)CC[C@H](NC(=O)CCCCCCCCCCCCCCCCCCC(=O)O)C(=O)O)C(=O)N[C@@H](CC(N)=O)C(=O)N[C@@H]([C@@H](C)O)C(=O)N[C@@H](C)C(=O)N[C@@H]([C@@H](C)O)C(=O)N1)[C@@H](C)O)C(=O)N[C@@H](CC(C)C)C(=O)N1CCC[C@H]1C(=O)N1CCC[C@H]1C(=O)N[C@H](C(=O)N[C@@H](CC(N)=O)C(=O)N[C@H](C(=O)NCC(=O)N[C@@H](CO)C(=O)N[C@@H](CC(N)=O)C(=O)N[C@H](C(=O)N[C@@H](Cc1ccc(O)cc1)C(N)=O)[C@@H](C)O)C(C)C)[C@@H](C)O [Example 18, N-alpha-[(S)-4-Carboxy-4-(19-carboxynonadecanoylamino)butyryl]-Arg-[Gly17]-pramlintide] ({C20 diacid-γGlu}-RKCNTATCATQRLANFLGHSSNNFGPILPPTNVGSNTY-NH2; disulfide 3-8)"
6,0.2,"CC(C)C[C@H](NC(=O)[C@H](CCCNC(=N)N)NC(=O)[C@H](CCC(N)=O)NC(=O)[C@@H](NC(=O)[C@H](C)NC(=O)[C@@H]1CSSC[C@H](NC(=O)[C@H](CCC(=O)O)NC(=O)[C@H](CCCNC(=N)N)NC(=O)[C@H](CCC(=O)O)NC(=O)CC[C@H](NC(=O)CCCCCCCCCCCCCCCCCCC(=O)O)C(=O)O)C(=O)N[C@@H](CC(N)=O)C(=O)N[C@@H]([C@@H](C)O)C(=O)N[C@@H](C)C(=O)N[C@@H]([C@@H](C)O)C(=O)N1)[C@@H](C)O)C(=O)N[C@@H](C)C(=O)N[C@@H](CC(N)=O)C(=O)N[C@@H](Cc1ccccc1)C(=O)N[C@@H](CC(C)C)C(=O)N[C@@H](CCCNC(=N)N)C(=O)N[C@@H](Cc1c[nH]cn1)C(=O)N[C@@H](CO)C(=O)N[C@@H](CO)C(=O)N[C@@H](CC(N)=O)C(=O)N[C@@H](CC(N)=O)C(=O)N[C@@H](Cc1ccccc1)C(=O)NCC(=O)N[C@@H](C)C(=O)N1CCC[C@H]1C(=O)N[C@@H](CC(C)C)C(=O)N[C@@H](CO)C(=O)N[C@@H](CO)C(=O)N[C@H](C(=O)N[C@@H](CC(N)=O)C(=O)N[C@H](C(=O)NCC(=O)N[C@@H](CO)C(=O)N[C@@H](CC(N)=O)C(=O)N[C@H](C(=O)N[C@@H](Cc1ccc(O)cc1)C(N)=O)[C@@H](C)O)C(C)C)[C@@H](C)O [Example 46, N-alpha-[(S)-4-Carboxy-4-(19-carboxynonadecanoylamino)butyryl]-Glu-Arg-[Glu1,Arg17,Ala25,Pro26,Ser28,Ser29]-pramlintide] ({C20 diacid-γGlu}-ERECNTATCATQRLANFLRHSSNNFGAPLSSTNVGSNTY-NH2; disulfide 4-9)"

# Reference: patent publication US8895504B2, “Amylin derivatives” (priority 2008, dated 2014)
